Data from patent US20260115187A1, “TRICYCLIC SKELETON COMPOUND AND USE THEREOF IN PREPARATION OF ANTITUMOR DRUG” (ZHONGSHAN HOSPITAL, FUDAN UNIVERSITY, priority 2024, published 2026).

Legend:
[1] = test system: PLC/PRF/5 KSR2 OE (PLC cells overexpressing KSR2); experiment: Cell IC50 assay (CCK8 cell viability), PLC/PRF/5 KSR2 OE; format: cell-based; details: Homo sapiens, PLC-PRF-5; hepatoma cells, 72 h incubation, CCK8; read-out: IC50 value of cell viability, PLC/PRF/5 KSR2 OE (PLC cells overexpressing KSR2)
Procedure: (§1) (1) Cell Preparation: Hepatoma cells (PLC/PRF/5, sourced from the Chinese Academy of Sciences; MHCC97H, sourced from this research institute) in good growth condition are prepared. The cells are trypsinized, diluted, and seeded into 96-well cell culture plates. 1,000-3,000 cells are added per well. The plates are then placed in a cell culture incubator at 37° C. with 5% CO2. Drugs are added after the cells have adhered for 24 h.
(§2) (2) Drug Addition: The drugs are subjected to gradient dilution, typically setting 9 concentrations. Control groups containing no drug medium and medium containing only the drug solvent are also set up. The diluted drugs are added to the cell culture plates seeded the previous day. The plates are incubated for 72 h.
(§3) (3) CCK8 Assay for Cell Viability: CCK8 is mixed with culture medium at a 1:10 ratio. 100 μL of this mixture is added to each well of the cell culture plate. After incubating for 2-4 h, the OD values are measured using a microplate reader.
(§4) (4) Data Analysis: Based on the corresponding OD values, the data are compiled, IC50 curves are plotted, and the IC50 values are obtained.
(§5) (5) IC50 Verification: The theoretical IC50 value is identified from the IC50 curve. Drug concentrations at ½ times, 1 time, and 2 times this theoretical value are used for verification.

[2] = test system: MHCC97H KSR2 OE (97H cells overexpressing KSR2); experiment: Cell IC50 assay (CCK8 cell viability), MHCC97H KSR2 OE; format: cell-based; details: Homo sapiens, hepatoma cells, 72 h incubation, CCK8, read-out: IC50 value of cell viability, MHCC97H KSR2 OE (97H cells overexpressing KSR2)
Procedure: as §1, §2, §3, §4, §5

SMILES | IC50 [1] [µM] | IC50 [2] [µM]
CCN1CCN(C2CN(C3CC(CNC(=O)c4nn(C)c5c4CSc4ccccc4-5)C3)C2)CC1 (stereo not shown) [Compound 80] | 28 | 8
CCN1CCN(C2CN(CCCNC(=O)c3nn(C)c4c3CSc3ccccc3-4)C2)CC1 [Compound 81] | 26 | 11
CN1CCN(C2CCN(CCCNC(=O)c3nn(C)c4c3COc3ccc(C#N)cc3-4)CC2)CC1 [Compound 82] | 8 | 8
CN1CCN(C2CCN(CCCNC(=O)c3n[nH]c4c3CSc3ccccc3-4)CC2)CC1 [Compound 83] | 18 | 10
CCN1CCN(C2CCN(CCCNC(=O)c3nn(C)c4c3COc3cc(Cl)ccc3-4)CC2)CC1 [Compound 84] | 2 | 1
CN1CCN(C2CN(CCCNC(=O)c3nn(C)c4c3CSc3ccccc3-4)C2)CC1 [Compound 85] | 25 | 19
CN1CCN(C2CN(CCCNC(=O)c3nn(C)c4c3COc3cc(Cl)ccc3-4)C2)CC1 [Compound 86] | 6 | 6
CCN1CCN(C2CN(CCCNC(=O)c3nn(C)c4c3COc3cc(Cl)ccc3-4)C2)CC1 [Compound 87] | 6 | 3
CN1CCN(C2CCN(CCCNC(=O)c3nn(C4COC4)c4c3CSc3ccccc3-4)CC2)CC1 [Compound 88] | 22 | 41
CN1CCN(C2CCN(CCCNC(=O)c3c4c(nn3C3COC3)-c3ccccc3SC4)CC2)CC1 [Compound 89] | 15 | 32
CN1CCN(C2CCN(CCCNC(=O)c3nn(CC(C)(C)O)c4c3CSc3ccccc3-4)CC2)CC1 [Compound 90] | 21 | 34
CN1CCN(C2CCN(CCCNC(=O)c3nn(C)c4c3COc3cc(C(F)(F)F)ccc3-4)CC2)CC1 [Compound 91] | 2 | 4
CN1CCN(C2CCN(CCCNC(=O)c3nn(C)c4c3COc3cc(Br)ccc3-4)CC2)CC1 [Compound 92] | 4 | 4
CN1CCN(C2CCN(CCCNC(=O)c3nn(C)c4c3COc3cc(C5CC5)ccc3-4)CC2)CC1 [Compound 93] | 3 | 4
CN1CCN(C2CCN(CCCNC(=O)c3nn(C)c4c3COc3cc(C#N)ccc3-4)CC2)CC1 [Compound 94] | 7 | 10
CN1CCN(C2CCN(CCCNC(=O)c3nn(C)c4c3COc3cc(-c5cnn(C)c5)ccc3-4)CC2)CC1 [Compound 95] | 2 | 2
CN1CCN(C2CCN(CCCNC(=O)c3nn(C)c4c3CSc3cc(Cl)ccc3-4)CC2)CC1 [Compound 96] | 4 | 1
CN1CCN(C2CN(CCCNC(=O)c3nn(C)c4c3CSc3cc(Cl)ccc3-4)C2)CC1 [Compound 97] | 7 | 5
Cn1nc(C(=O)NCCCN2CC(N3CCOCC3)C2)c2c1-c1ccc(Cl)cc1OC2 [Compound 98] | 18 | 29
CN1CCN(C2CN(C3CC(CNC(=O)c4nn(C)c5c4COc4cc(Cl)ccc4-5)C3)C2)CC1 (stereo not shown) [Compound 99] | 9 | 17
CN1CCCC12CN(CCCNC(=O)c1nn(C)c3c1CSc1ccccc1-3)C2 [Compound 100] | 61 | 71
CN1CCN(C2CCN(CCCNC(=O)c3nn(C)c4c3COc3cc(Cl)c(Br)cc3-4)CC2)CC1 [Compound 101] | 1 | 1
CN1CCN(C2CCN(CCCNC(=O)c3c4c(nn3C)-c3cc(Br)c(Cl)cc3OC4)CC2)CC1 [Compound 102] | 1 | 1
CC(C)N1CCN(C2CN(CCCNC(=O)c3nn(C)c4c3COc3cc(Cl)ccc3-4)C2)CC1 [Compound 103] | 5 | 5
Cn1nc(C(=O)NCCCN2CC(N3CC[C@H](O)C3)C2)c2c1-c1ccc(Cl)cc1OC2 [Compound 104] | 30 | 41
CN1CCN(C2CCN(CCCNC(=O)c3nn(C)c4c3COc3cc(OC(F)(F)F)ccc3-4)CC2)CC1 [Compound 105] | 4 | 3
CN1CCN(C2CN(CCCNC(=O)c3nn(C)c4c3COc3cc(OC(F)(F)F)ccc3-4)C2)CC1 [Compound 107] | 2 | 5

SMILES | IC50 [1] [µM] | IC50 [2] [µM]
CN1CCN(C2CN(CCCNC(=O)c3c4c(nn3C)-c3ccc(OC(F)(F)F)cc3OC4)C2)CC1 [Compound 108] | 5 | 8
CCN1CCN(C2CN(CCCNC(=O)c3nn(C)c4c3CSc3cc(Cl)ccc3-4)C2)CC1 [Compound 109] | 7 | 10
CN1CCN(C2CN(C3CC(CNC(=O)c4nn(C)c5c4CSc4cc(Cl)ccc4-5)C3)C2)CC1 (stereo not shown) [Compound 110] | 4 | 9
CCN1CCN(C2CN(C3CC(CNC(=O)c4nn(C)c5c4CSc4cc(Cl)ccc4-5)C3)C2)CC1 (stereo not shown) [Compound 111] | 6 | 9
CCN1CCN(C2CN(C3CC(CNC(=O)c4nn(C)c5c4COc4cc(OC(F)(F)F)ccc4-5)C3)C2)CC1 (stereo not shown) [Compound 112] | 3 | 4
CN1CCN(C2CCN(CCCNC(=O)c3nn(C)c4c3COc3cc(Cl)c(C#N)cc3-4)CC2)CC1 [Compound 113] | 1 | 0.8
CCN1CCN(C2CN(C3CC(CNC(=O)c4nn(C)c5c4COc4cc(Cl)ccc4-5)C3)C2)CC1 (stereo not shown) [Compound 114] | 4 | 2
Cc1ccc2c(c1)OCc1c-2nn(C)c1C(=O)NCCCN1CC(N2CCN(C)CC2)C1 [Compound 115] | 43 | 18
Cc1ccc2c(c1)OCc1c-2nn(C)c1C(=O)NCCCN1CCC(N2CCN(C)CC2)CC1 [Compound 116] | 18 | 7
CN1CCN(C2CCN(CCCNC(=O)c3c4c(nn3C)-c3ccc(Cl)cc3OC4)CC2)CC1 [Compound 117] | 6 | 0.7
CN1CCN(C2CN(CCCNC(=O)c3c4c(nn3C)-c3ccc(Cl)cc3OC4)C2)CC1 [Compound 118] | 10 | 5
CN1CCN(C2CN(CCCNC(=O)c3nn(C)c4c3COc3cc(Cl)c(C#N)cc3-4)C2)CC1 [Compound 119] | 5 | 7
Cc1ccc2c(c1)OCc1c(C(=O)NCCCN3CCC(N4CCN(C)CC4)CC3)nn(C)c1-2 [Compound 120] | 8 | 10
Cc1ccc2c(c1)OCc1c(C(=O)NCCCN3CC(N4CCN(C)CC4)C3)nn(C)c1-2 [Compound 121] | 18 | 20
CN1CCN(C2CCN(CCCNC(=O)c3c4c(nn3C)-c3cc(C#N)c(Cl)cc3OC4)CC2)CC1 [Compound 122] | 4 | 5
CN1CCN(C2CCN(CCCNC(=O)c3c4c(nn3C)-c3ccc(-c5cn[nH]c5)cc3OC4)CC2)CC1 [Compound 123] | 114 | 85
CN1CCN(C2CCN(CCCNC(=O)c3c4c(nn3C)-c3ccc(-n5nccn5)cc3OC4)CC2)CC1 [Compound 124] | 2 | 5
CN1CCN(C2CCN(CCCNC(=O)c3n[nH]c4c3COc3cc(Cl)ccc3-4)CC2)CC1 [Compound 125] | 1 | 1
CN1CCN(C2CN(CCCNC(=O)c3n[nH]c4c3COc3cc(Cl)ccc3-4)C2)CC1 [Compound 126] | 9 | 7
CN1CCN(C2CCN(CCCNC(=O)c3nn(C)c4c3COc3cc(-c5cn[nH]c5)ccc3-4)CC2)CC1 [Compound 127] | 8 | 4
CN1CCN(C2CCN(CCCNC(=O)c3n[nH]c4c3COc3cc(Cl)c(C#N)cc3-4)CC2)CC1 [Compound 128] | 4 | 6
CCN1CCN(C2CCN(CCCNC(=O)c3n[nH]c4c3COc3cc(Cl)c(C#N)cc3-4)CC2)CC1 [Compound 129] | 5 | 4
CN1CCN(C2CCN(CCCNC(=O)c3n[nH]c4c3COc3cc(C(F)(F)F)c(C#N)cc3-4)CC2)CC1 [Compound 130] | 10 | 4
CN1CCN(C2CN(CCCNC(=O)c3n[nH]c4c3COc3cc(C(F)(F)F)c(C#N)cc3-4)C2)CC1 [Compound 131] | 14 | 9
CCN1CCN(C2CCN(CCCNC(=O)c3n[nH]c4c3COc3cc(C(F)(F)F)c(C#N)cc3-4)CC2)CC1 [Compound 132] | 4 | 1
CCN1CCN(C2CCN(CCCNC(=O)c3nn(C)c4c3COc3cc(-c5cnn(C)c5)ccc3-4)CC2)CC1 [Compound 133] | 2 | 1
